How the values were obtained:
intact ZIKV particles [1] = assay: Direct ELISA of biotinylated peptides vs intact ZIKV particles; type: binding, Zika virus (ZIKV); details: dose-response curves
Protocol: (§1) To optimize all parameters of the direct ELISA protocol, Pierce 96-Well Polystyrene Plates, (ThermoFisher Scientific) were coated overnight at 4° C. with different concentrations of intact virus particles (ZIKV or DENV). The intact virus particles were diluted using 100 mM NaHCO3, pH 9.6, and aliquots of 100 μL were dispensed into each well of the plate using a multichannel pipette. This buffer pH assured a strong hydrophobic binding interaction between polystyrene and virus particles.
(§2) Intact particles both ZIKV and DENV were provided by Dr. Watkins group (University of Miami, Dep. of Pathology). The samples were controlled and counted by focus forming assay and RT-PCR, the details were reported in a previous work (Magnani et al., 2017). The Intact particles of ZIKV were inactivated using gamma irradiation. Assay biohazardous steps were carried out according to standard safety procedures.
After coating the plates overnight, the intact virus particles were removed by washing five times with the washing buffer (PBST) 10 mM PBS pH 7.4, 0.1% Tween-20, using an automated plate washer (MultiWash+, Molecular Devices, Sunnyvale, Calif.). Then, the plates were blocked with 200 μL of blocking buffers while shaking at 300 rpm at room temperature. The blocking buffers used were: Pierce™ Protein-Free (PBS) Blocking Buffer (PF), Blocker™ BLOTTO in TBS, SuperBlock™ Blocking Buffer, Blocker™ BSA (1×) in PBS. All blocking buffer were from ThermoFisher Scientific.
After 2 h the blocking buffers were removed using the same washing procedure mentioned above. 100 μL-aliquots of several dilutions of peptides biotinylated in 10 mM PBS pH 7.4 were placed in each well and incubated for 2 h while shaking at 300 rpm at room temperature. After the incubation, the unreacted peptides were removed by using the plate washer with the same settings. Then, 100 μL-aliquots of streptavidin-HRP (ThermoFisher Scientific) at a concentration of 20 ng/mL were added into each well and incubated for 30 min at room temperature without shaking. After the incubation, excess streptavidin-HRP was removed and the wells were washed with the plate washer five times using the washing buffer. Finally, 100 μL-aliquots of the Ultra TMB-ELISA Substrate Solution (ThermoFisher Scientific) were added and after 10 min the reaction was stopped by adding 100 μL aliquots of the TMB stop solution (SeraCare). The emission (450 nm) was read using a microplate reader (Clariostar Optima; BMG Labtech, Ortenberg, Germany).
The corresponding blank signals in triplicates were obtained by using all reagents without peptides. The blank signal was then subtracted to the average absorbance values for triplicate wells of each test. […]

[2] = tested on: three serotypes of DENV (DENV-1, -2 and -3); assay: Direct ELISA cross-reactivity study, ZIKV vs DENV; type: binding, Dengue virus (DENV); details: all DENV serotypes; plates coated with 10^5 copies/mL of intact virus particles
Protocol: as §1, §2
(§3) The cross-reactivity among Flaviviruses is a key parameter to be tested for this assay. Using the same ELISA protocol, the three clamp peptides (C3, C6 and C7) with higher sensitivity versus the intact ZIKV particles where employed to test the ability to discriminate ZIKV from the three serotypes of DENV (DENV-1, -2 and -3).
(§4) The results shown in FIG. 4 were obtained by coating clear 96-well plates with a solution of 10^^5 copies/mL of intact virus particles. […]

intact ZIKV particles [3] = assay: Direct ELISA matrix effect in urine and serum; type: binding, Zika virus (ZIKV); details: urine diluted 1:1, serum 1:10; 10^5 and 10^6 copies/mL ZIKV coated
Protocol: Usually, the presence of ZIKV in affected bodies is detected in biological fluids. Therefore, the analytical sensitivity of the selected peptides was tested in two biological matrices, namely, urine and serum. The matrix effect was investigated to understand how real biological fluids could modify the binding efficiency of the peptides.
FIG. 4 depicts the ELISA data using solutions of peptides with or without the urine and serum obtained coating clear 96-well plates with 10^^5 and 10^^6 copies/mL of intact ZIKV particles. Urine and serum were 1:1 and 1:10 diluted, respectively, with a concentrated peptide PBS solution (10 mM PBS, pH 7.4) to obtain a peptide final concentration of 0.5 μM for C3 and C6, 5 μM for C7 and 20 μM for mono-arm peptides (P2 and X1).

DENV-2 = assay: Direct ELISA cross-reactivity study, DENV-2; type: binding, Dengue virus (DENV); details: plates coated with 10^5 copies/mL of intact virus particles
Protocol: as §1, §2, §3, §4

DENV-3 = assay: Direct ELISA cross-reactivity study, DENV-3; type: binding, Dengue virus (DENV); details: plates coated with 10^5 copies/mL of intact virus particles
Protocol: as §1, §2, §3, §4

| Substance | dynamic range width (orders of magnitude) (intact ZIKV particles [1]) | signal decrease, DENV relative to ZIKV [2] | performance in urine and serum (intact ZIKV particles [3]) | signal decrease, DENV-2 relative to ZIKV (DENV-2) [%] | signal decrease, DENV-3 relative to ZIKV (DENV-3) [%] |
| --- | --- | --- | --- | --- | --- |
| C3: clamp peptide: WPWIGT (18) - bridge GPGCCGPG (32) - KRNATP (26) (WPWIGTGPGCCGPGKRNATP; C3 Binds to Active Site 2; Bridge peptide; C3 Binds to Active Site 1) | three-order of magnitude dynamic range | around 70% | better performance in urine than serum |  |  |
| C6: clamp peptide: AGRRP (20) - bridge GPGCCGPG (32) - LRGHA (25) (AGRRPGPGCCGPGLRGHA; C5 Binds to Active Site 2; Bridge peptide; C2 Binds to Active Site 1) | three-order of magnitude dynamic range |  | strong decrease in the signal | 45 | 55 |
| C7: clamp peptide: MDSPIK (22) - bridge GPGCCGPG (32) - KRNATP (26) (MDSPIKGPGCCGPGKRNATP; C7 Binds to Active Site 2; Bridge peptide; C3 Binds to Active Site 1) | three-order of magnitude dynamic range | around 70% | best performance among the three clamp peptides, having higher signals in serum than in urine |  |  |
| C-SWPGQ (CSWPGQ; P1) [mono-arm pentapeptide with N-terminal cysteine] | one order of magnitude dynamic range |  |  |  |  |
